For this test, the target named is PKCδ (Homo sapiens, UniProt Q05655). The test is described as follows: Omnia fluorescent. The class given is biochemical.
Sequence of PKCδ (Q05655 whole entry): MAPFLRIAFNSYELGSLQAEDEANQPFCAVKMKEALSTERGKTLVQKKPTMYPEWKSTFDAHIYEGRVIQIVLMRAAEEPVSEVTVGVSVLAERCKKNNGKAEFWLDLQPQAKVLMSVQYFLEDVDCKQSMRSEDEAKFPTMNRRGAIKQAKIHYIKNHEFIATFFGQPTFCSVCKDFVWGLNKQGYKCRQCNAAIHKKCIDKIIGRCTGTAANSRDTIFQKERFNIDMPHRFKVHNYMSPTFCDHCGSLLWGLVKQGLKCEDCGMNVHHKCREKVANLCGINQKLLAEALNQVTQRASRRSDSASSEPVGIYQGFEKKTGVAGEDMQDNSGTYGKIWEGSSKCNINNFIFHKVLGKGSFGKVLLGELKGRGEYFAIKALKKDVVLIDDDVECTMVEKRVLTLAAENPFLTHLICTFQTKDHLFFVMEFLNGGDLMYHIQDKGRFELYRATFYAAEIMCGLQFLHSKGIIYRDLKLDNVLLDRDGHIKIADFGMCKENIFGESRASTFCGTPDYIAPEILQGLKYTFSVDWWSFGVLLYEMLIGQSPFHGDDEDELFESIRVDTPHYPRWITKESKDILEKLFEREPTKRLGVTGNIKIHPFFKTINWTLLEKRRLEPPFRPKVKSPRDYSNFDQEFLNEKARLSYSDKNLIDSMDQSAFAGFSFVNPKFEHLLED

Take `CC(=O)c1c(O)c(C)c(O)c(Cc2c(O)c3c(c(C(=O)/C=C/c4ccccc4)c2O)OC(C)(C)C=C3)c1O` [rottlerin]: the midpoint of inhibition, the IC50, lay at 200 nM.

For orientation: IC50 means the concentration that inhibits the measured activity by half. A low value points to inhibition by little substance.

The values are drawn from PMC3527126 (Endocrine-related cancer, 2011).
